From patent US20060177839A1, “Method for modulating the evolution of a polypeptide encoded by a nucleic acid sequence” (priority 2004, published 2006)

System: dfrB1 WT gene (dehydrofolate reductase conferring resistance to trimethoprim)
Conditions: resistance conferred by dfrB1 WT gene

COc1cc(Cc2cnc(N)nc2N)cc(OC)c1OC [trimethoprim]
MIC: 512 micg/ml
